From the kinase profiling compilation of Christmann-Franck et al. (2016)

Legend:
Assay in all cases: KINOMEscan competition binding
Conditions in all cases: compound 10.0 µM
DYRK1B (human) = DYRK1B (human) (UniProt Q9Y463)
GAK (human) = GAK (human) (UniProt O14976)
MAPKAPK2 (human) = MAPKAPK2 (human) (UniProt P49137)
MARK3 (human) = MARK3 (human) (UniProt P27448)
IGF1R (human) = IGF1R (human) (UniProt P08069)
SIK1 (human) = SIK1 (human) (UniProt P57059)
ACVR2B (human) = ACVR2B (human) (UniProt Q13705)
GSK3B (human) = GSK3B (human) (UniProt P49841)
CSNK1G2 (human) = CSNK1G2 (human) (UniProt P78368)
TSSK1B (human) = TSSK1B (human) (UniProt Q9BXA7)
PTK2 (human) = PTK2 (human) (UniProt Q05397)
[1] = biological target: JAK2 JH1 catalytic (human) (UniProt O60674)
STK39 (human) = STK39 (human) (UniProt Q9UEW8)
[2] = system: BRAF (human), P15056 [V600E]
FGFR3 (human) = FGFR3 (human) (UniProt P22607)
STK32C (human) = STK32C (human) (UniProt Q86UX6)
MAPK11 (human) = MAPK11 (human) (UniProt Q15759)
Sequence of MAPK11 (human) (Q15759 whole entry, looked up): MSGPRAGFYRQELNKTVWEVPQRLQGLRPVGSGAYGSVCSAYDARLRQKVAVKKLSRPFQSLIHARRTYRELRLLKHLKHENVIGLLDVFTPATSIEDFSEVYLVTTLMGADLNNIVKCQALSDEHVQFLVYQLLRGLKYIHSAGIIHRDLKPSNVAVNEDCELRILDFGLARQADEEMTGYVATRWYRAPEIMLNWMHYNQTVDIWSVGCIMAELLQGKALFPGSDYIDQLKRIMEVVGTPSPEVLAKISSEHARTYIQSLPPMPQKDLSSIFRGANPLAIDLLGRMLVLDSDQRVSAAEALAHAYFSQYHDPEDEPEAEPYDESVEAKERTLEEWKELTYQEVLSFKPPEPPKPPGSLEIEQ

INSR (human) = INSR (human) (UniProt P06213)
PIM3 (human) = PIM3 (human) (UniProt Q86V86)
PDGFRB (human) = PDGFRB (human) (UniProt P09619)
CDK9 (human) = CDK9 (human) (UniProt P50750)
PDPK1 (human) = PDPK1 (human) (UniProt O15530)
CAMK4 (human) = CAMK4 (human) (UniProt Q16566)
MAPK8 (human) = MAPK8 (human) (UniProt P45983)
PAK4 (human) = PAK4 (human) (UniProt O96013)
CSF1R (human) = CSF1R (human) (UniProt P07333)
Sequence of CSF1R (human) (P07333 whole entry, looked up): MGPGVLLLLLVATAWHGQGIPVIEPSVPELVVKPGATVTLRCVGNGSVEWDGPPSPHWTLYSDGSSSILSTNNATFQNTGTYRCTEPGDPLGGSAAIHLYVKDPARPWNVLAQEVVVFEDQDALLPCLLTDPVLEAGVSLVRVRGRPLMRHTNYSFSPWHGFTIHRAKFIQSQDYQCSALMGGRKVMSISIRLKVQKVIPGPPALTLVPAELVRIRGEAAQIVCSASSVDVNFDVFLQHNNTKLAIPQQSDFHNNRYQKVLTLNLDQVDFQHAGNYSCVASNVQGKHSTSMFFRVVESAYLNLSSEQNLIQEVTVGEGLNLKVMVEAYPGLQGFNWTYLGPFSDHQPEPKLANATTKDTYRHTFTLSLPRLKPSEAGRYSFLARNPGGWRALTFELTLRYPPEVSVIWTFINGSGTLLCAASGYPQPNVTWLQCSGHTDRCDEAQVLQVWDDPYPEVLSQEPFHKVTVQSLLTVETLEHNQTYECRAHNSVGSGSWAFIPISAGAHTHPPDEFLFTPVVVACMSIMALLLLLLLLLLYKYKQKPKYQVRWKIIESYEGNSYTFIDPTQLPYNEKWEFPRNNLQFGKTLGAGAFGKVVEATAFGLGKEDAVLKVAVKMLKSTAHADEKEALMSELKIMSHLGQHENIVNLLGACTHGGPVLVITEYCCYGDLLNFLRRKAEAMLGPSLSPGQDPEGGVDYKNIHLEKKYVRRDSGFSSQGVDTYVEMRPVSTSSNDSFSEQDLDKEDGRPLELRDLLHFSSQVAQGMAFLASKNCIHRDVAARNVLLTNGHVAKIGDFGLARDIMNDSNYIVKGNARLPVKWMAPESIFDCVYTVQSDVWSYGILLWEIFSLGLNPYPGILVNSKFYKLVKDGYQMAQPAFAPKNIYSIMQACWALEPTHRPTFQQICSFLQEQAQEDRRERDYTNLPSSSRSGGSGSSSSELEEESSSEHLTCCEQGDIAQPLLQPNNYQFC

MAP3K4 (human) = MAP3K4 (human) (UniProt Q9Y6R4)
PIP5K1A (human) = PIP5K1A (human) (UniProt Q99755)
PLK1 (human) = PLK1 (human) (UniProt P53350)
[3] = biological target: TYK2 JH1 catalytic (human) (UniProt P29597)
AAK1 (human) = AAK1 (human) (UniProt Q2M2I8)
AKT1 (human) = AKT1 (human) (UniProt P31749)
MAP3K12 (human) = MAP3K12 (human) (UniProt Q12852)
NTRK1 (human) = NTRK1 (human) (UniProt P04629)
CDK16 (human) = CDK16 (human) (UniProt Q00536)
Sequence of CDK16 (human) (Q00536 whole entry, looked up): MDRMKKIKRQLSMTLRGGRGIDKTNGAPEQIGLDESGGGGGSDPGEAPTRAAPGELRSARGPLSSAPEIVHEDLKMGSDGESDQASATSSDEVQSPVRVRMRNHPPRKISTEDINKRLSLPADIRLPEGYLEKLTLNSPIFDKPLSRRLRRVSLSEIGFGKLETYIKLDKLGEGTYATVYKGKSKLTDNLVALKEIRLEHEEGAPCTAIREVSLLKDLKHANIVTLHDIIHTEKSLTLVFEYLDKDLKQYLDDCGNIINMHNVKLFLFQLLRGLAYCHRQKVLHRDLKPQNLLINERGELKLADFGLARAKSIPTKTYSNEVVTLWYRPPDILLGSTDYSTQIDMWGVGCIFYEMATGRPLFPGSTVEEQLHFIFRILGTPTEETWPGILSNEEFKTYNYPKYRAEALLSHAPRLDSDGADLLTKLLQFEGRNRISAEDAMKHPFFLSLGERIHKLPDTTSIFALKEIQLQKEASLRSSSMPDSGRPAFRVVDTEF

CHUK (human) = CHUK (human) (UniProt O15111)
Sequence of CHUK (human) (O15111 whole entry, looked up): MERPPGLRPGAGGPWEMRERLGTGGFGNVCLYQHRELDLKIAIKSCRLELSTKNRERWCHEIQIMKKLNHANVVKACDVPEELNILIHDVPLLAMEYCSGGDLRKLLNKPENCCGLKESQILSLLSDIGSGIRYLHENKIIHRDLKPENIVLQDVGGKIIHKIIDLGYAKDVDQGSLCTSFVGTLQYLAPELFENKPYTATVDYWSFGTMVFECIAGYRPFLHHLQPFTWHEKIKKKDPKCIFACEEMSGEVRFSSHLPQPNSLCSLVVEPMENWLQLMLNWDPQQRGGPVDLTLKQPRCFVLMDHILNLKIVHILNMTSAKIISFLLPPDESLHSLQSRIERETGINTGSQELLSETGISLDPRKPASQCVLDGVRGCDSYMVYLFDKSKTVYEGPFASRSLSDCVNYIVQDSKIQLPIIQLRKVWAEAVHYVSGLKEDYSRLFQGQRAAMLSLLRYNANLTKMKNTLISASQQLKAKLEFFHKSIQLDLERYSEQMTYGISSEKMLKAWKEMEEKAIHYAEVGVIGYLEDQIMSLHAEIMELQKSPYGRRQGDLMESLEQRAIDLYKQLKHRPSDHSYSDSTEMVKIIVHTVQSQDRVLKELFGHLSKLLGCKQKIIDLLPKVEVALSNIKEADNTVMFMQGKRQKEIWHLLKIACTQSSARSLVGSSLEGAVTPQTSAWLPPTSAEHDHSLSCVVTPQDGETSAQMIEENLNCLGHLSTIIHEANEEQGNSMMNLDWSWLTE

FGFR2 (human) = FGFR2 (human) (UniProt P21802)
AURKA (human) = AURKA (human) (UniProt O14965)
Sequence of AURKA (human) (O14965 whole entry, looked up): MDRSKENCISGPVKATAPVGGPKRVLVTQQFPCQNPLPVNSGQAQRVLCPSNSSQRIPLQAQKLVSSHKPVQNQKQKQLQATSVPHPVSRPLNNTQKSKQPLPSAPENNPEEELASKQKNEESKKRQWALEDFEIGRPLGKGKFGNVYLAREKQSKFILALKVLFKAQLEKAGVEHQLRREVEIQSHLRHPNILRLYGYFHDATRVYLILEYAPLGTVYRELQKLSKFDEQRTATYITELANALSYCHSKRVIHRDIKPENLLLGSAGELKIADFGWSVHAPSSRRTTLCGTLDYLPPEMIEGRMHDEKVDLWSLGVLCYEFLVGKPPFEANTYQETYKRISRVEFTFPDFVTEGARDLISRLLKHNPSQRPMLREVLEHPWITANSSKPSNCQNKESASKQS

GRK1 (human) = GRK1 (human) (UniProt Q15835)
Sequence of GRK1 (human) (Q15835 whole entry, looked up): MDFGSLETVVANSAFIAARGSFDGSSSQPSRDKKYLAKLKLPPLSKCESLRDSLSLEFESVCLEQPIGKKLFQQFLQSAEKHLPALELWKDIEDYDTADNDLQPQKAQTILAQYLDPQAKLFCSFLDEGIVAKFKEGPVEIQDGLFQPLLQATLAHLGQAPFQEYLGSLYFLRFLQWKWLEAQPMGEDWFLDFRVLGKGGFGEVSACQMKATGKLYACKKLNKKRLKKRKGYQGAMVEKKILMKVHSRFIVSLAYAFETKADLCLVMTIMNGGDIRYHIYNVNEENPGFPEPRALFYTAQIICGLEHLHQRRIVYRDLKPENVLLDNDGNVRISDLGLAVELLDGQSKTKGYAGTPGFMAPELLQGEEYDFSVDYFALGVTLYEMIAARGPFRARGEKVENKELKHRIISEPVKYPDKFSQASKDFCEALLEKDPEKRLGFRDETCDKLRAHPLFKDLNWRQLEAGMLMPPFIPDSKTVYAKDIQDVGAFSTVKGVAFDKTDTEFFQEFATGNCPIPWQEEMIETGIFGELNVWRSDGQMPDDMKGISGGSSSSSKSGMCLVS

IKBKB (human) = IKBKB (human) (UniProt O14920)
Sequence of IKBKB (human) (O14920 whole entry, looked up): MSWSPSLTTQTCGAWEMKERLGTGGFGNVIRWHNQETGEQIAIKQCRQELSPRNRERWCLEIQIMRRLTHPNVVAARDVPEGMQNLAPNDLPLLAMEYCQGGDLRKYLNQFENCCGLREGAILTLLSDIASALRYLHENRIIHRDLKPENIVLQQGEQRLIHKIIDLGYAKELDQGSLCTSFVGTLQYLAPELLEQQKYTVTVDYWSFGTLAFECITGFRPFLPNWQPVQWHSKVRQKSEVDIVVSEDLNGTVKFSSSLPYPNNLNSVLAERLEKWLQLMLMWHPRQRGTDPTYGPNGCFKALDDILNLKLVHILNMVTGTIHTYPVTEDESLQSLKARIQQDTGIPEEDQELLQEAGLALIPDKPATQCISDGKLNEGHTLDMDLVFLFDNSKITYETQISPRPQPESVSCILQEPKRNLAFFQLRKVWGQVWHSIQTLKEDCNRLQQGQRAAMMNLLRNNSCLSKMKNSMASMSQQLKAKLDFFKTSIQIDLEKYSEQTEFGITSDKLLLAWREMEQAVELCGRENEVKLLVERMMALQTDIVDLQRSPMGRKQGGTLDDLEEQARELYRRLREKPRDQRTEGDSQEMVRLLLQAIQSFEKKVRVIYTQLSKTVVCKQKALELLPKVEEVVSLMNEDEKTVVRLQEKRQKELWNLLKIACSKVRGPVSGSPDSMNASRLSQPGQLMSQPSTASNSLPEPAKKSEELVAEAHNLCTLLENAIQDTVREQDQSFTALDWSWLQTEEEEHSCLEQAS

NEK1 (human) = NEK1 (human) (UniProt Q96PY6)

Sequence of MARK3 (human) (P27448 whole entry, looked up): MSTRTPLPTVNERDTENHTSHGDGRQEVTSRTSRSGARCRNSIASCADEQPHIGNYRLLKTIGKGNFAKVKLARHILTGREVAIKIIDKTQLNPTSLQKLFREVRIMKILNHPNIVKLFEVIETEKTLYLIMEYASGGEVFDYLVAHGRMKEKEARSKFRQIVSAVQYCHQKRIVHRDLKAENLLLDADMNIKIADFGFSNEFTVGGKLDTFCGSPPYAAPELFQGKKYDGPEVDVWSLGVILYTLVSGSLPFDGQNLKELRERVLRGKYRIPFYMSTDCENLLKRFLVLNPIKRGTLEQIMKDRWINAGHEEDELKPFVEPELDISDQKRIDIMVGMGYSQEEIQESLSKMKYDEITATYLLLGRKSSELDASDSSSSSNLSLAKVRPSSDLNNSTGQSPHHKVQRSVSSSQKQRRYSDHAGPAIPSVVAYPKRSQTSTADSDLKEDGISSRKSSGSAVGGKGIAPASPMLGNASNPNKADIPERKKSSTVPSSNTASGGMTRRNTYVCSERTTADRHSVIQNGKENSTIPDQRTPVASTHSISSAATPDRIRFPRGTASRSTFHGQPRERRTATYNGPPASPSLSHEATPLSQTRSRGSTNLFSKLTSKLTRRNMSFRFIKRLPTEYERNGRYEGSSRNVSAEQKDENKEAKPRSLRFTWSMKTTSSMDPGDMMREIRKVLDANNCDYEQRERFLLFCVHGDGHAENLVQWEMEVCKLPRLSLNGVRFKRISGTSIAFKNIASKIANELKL

kinase still bound, per cent of control (DYRK1B (human)): 96% | kinase still bound, per cent of control (GAK (human)): 90% | kinase still bound, per cent of control (MAPKAPK2 (human)): 100% | kinase still bound, per cent of control (MARK3 (human)): 75% | kinase still bound, per cent of control (IGF1R (human)): 100% | kinase still bound, per cent of control (SIK1 (human)): 100% | kinase still bound, per cent of control (ACVR2B (human)): 100% | kinase still bound, per cent of control (GSK3B (human)): 99% | kinase still bound, per cent of control (CSNK1G2 (human)): 94% | kinase still bound, per cent of control (TSSK1B (human)): 86% | kinase still bound, per cent of control (PTK2 (human)): 94% | kinase still bound, per cent of control [1]: 80% | kinase still bound, per cent of control (STK39 (human)): 72% | kinase still bound, per cent of control [2]: 0.55% | kinase still bound, per cent of control (FGFR3 (human)): 80% | kinase still bound, per cent of control (STK32C (human)): 96% | kinase still bound, per cent of control (MAPK11 (human)): 1.2% | kinase still bound, per cent of control (INSR (human)): 84% | kinase still bound, per cent of control (PIM3 (human)): 94% | kinase still bound, per cent of control (PDGFRB (human)): 0% | kinase still bound, per cent of control (CDK9 (human)): 56% | kinase still bound, per cent of control (PDPK1 (human)): 89% | kinase still bound, per cent of control (CAMK4 (human)): 100% | kinase still bound, per cent of control (MAPK8 (human)): 85% | kinase still bound, per cent of control (PAK4 (human)): 100% | kinase still bound, per cent of control (CSF1R (human)): 0.3% | kinase still bound, per cent of control (MAP3K4 (human)): 87% | kinase still bound, per cent of control (PIP5K1A (human)): 73% | kinase still bound, per cent of control (PLK1 (human)): 100% | kinase still bound, per cent of control [3]: 88% | kinase still bound, per cent of control (AAK1 (human)): 85% | kinase still bound, per cent of control (AKT1 (human)): 100% | kinase still bound, per cent of control (MAP3K12 (human)): 100% | kinase still bound, per cent of control (NTRK1 (human)): 41% | kinase still bound, per cent of control (CDK16 (human)): 98% | kinase still bound, per cent of control (CHUK (human)): 51% | kinase still bound, per cent of control (FGFR2 (human)): 51% | kinase still bound, per cent of control (AURKA (human)): 23% | kinase still bound, per cent of control (GRK1 (human)): 89% | kinase still bound, per cent of control (IKBKB (human)): 91% | kinase still bound, per cent of control (NEK1 (human)): 85%
SMILES: O=C(Nc1ccc(Oc2ncnc3[nH]ncc23)cc1)Nc1ccc(Cl)c(C(F)(F)F)c1
